# Calls of active or inactive are those of the source. The rule behind the calls is not given here.
# Tests used:
# [1] = target: T1, Estrogen-related receptor gamma (Homo sapiens) (UniProt P62508); experiment: Inverse agonist activity at ERRgamma in human CAL62 cells assessed as increase in TG mRNA expression at 6 to 12 uM by RT-PCR analysis; type: cell-based
# T1 sequence (whole entry): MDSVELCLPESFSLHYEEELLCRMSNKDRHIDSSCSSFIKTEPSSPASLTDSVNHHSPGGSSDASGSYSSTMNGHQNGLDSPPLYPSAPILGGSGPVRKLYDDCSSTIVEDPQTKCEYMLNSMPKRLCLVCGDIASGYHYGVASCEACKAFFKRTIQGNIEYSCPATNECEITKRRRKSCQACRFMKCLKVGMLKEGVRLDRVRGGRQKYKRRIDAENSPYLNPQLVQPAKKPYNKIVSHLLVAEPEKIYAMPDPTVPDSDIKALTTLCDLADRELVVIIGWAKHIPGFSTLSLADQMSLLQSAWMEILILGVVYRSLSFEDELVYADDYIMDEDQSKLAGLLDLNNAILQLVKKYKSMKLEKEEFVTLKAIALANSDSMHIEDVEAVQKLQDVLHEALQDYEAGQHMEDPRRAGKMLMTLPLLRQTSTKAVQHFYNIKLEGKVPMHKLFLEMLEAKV
# [2] = target: T1, Estrogen-related receptor gamma (Homo sapiens); experiment: Inverse agonist activity at ERRgamma in human CAL62 cells assessed as restoration of sodium iodide symporter function by measuring increase in radioiodide avidity at 6 to 12 uM after 24 hrs by gamma counting analysis based [125-I]-iodide uptake assay; type: cell-based
# [3] = Genotoxicity in Salmonella typhimurium at 2 mM by mini Ames test; type: toxicity; settings: salmonella enterica subsp. enterica serovar typhimurium, 2000 µM
# CYP2D6 = CYP2D6 (Homo sapiens, UniProt P10635); experiment: Inhibition of CYP2D6 in human liver microsomes assessed as reduction in dextromethorphan O-demethylase activity at 10 uM preincubated for 5 mins followed by NADPH addition and measured after 15 mins by LC-MS/MS analysis relative to control; type: ADME; settings: probe dextromethorphan (O-demethylation)
# Chain of CYP2D6 (P10635 whole entry): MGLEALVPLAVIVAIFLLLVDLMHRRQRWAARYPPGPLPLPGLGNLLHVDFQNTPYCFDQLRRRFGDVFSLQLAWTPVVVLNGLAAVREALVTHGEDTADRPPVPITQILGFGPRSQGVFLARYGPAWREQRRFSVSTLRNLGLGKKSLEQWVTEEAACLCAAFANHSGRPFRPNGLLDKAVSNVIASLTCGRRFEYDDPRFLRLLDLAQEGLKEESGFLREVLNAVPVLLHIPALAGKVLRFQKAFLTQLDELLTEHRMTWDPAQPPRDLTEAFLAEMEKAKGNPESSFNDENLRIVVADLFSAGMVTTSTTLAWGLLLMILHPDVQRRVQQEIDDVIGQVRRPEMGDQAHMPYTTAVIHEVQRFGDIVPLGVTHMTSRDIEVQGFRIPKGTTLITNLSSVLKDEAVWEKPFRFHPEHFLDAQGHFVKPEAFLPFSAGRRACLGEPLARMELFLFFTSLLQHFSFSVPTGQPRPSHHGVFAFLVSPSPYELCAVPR
# [4] = target: T1, Estrogen-related receptor gamma (Homo sapiens); experiment: Inverse agonist activity at ERRgamma in human BHT101 cells assessed as increase in TG mRNA expression at 6 to 12 uM by RT-PCR analysis; type: cell-based
# [5] = Tmax in Sprague-Dawley rat at 9 to 10 mg/kg, po via gavage by LC-MS/MS analysis; type: ADME, organism-based; settings: in vivo
# CYP1A2 = target: T2, CYP1A2 (Homo sapiens, UniProt P05177); experiment: Inhibition of CYP1A2 in human liver microsomes assessed as reduction in phenacetin O-deethylase activity at 10 uM preincubated for 5 mins followed by NADPH addition and measured after 15 mins by LC-MS/MS analysis relative to control; type: ADME; settings: probe phenacetin (O-deethylation)
# T2 sequence (P05177 whole entry): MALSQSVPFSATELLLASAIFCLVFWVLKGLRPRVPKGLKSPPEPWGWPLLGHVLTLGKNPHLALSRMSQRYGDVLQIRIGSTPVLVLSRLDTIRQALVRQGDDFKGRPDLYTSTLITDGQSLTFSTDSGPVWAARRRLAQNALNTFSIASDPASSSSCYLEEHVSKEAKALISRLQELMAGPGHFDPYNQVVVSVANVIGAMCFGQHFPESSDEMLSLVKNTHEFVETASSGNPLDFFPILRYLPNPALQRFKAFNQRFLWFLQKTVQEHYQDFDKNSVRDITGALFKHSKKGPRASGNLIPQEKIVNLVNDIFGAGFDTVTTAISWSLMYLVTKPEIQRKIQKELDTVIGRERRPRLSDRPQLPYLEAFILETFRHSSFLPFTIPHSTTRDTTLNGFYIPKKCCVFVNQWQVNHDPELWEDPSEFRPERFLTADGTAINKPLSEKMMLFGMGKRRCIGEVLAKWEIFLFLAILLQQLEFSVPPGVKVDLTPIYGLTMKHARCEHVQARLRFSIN
# [6] = Metabolic stability in dog liver microsomes assessed as compound remaining at 1 uM after 30 mins in presence of NADPH regeneration system by LC-MS/MS analysis; type: ADME, Canis lupus familiaris, Microsome; settings: read-out: Stability
# CAL-62 = experiment: Reduction in colony formation in human CAL62 cells at 6 uM after 24 hrs by crystal violet-based assay; type: ADME, cell-based; settings: cal-62, 24 h
# [7] = target: T1, Estrogen-related receptor gamma (Homo sapiens); experiment: Inverse agonist activity at ERRgamma in human CAL62 cells assessed as increase in TSHR mRNA expression at 6 to 12 uM by RT-PCR analysis; type: cell-based
# [8] = Effective permeability of the compound at 10 uM after 5 hrs by PAMPA; type: ADME; settings: read-out: Peff
# CYP2C19 = CYP2C19 (Homo sapiens, UniProt P33261); experiment: Inhibition of CYP2C19 in human liver microsomes assessed as reduction in S-mephenytoin 4-hydroxylase activity at 10 uM preincubated for 5 mins followed by NADPH addition and measured after 15 mins by LC-MS/MS analysis relative to control; type: ADME; settings: probe S-mephenytoin (4-hydroxylation)
# Chain of CYP2C19 (P33261 whole entry): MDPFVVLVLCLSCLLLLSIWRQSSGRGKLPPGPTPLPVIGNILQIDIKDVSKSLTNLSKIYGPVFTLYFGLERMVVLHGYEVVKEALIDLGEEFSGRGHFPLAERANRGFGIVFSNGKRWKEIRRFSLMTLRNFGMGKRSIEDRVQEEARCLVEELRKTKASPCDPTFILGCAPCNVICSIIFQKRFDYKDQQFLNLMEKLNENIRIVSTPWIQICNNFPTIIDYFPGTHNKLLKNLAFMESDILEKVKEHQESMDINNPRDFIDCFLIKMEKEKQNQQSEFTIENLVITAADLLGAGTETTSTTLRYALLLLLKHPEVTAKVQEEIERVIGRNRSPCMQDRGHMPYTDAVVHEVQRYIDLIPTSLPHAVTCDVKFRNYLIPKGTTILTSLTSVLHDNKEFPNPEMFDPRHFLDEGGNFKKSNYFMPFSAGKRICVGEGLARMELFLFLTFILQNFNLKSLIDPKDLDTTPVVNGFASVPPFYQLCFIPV
# [9] = AUC (0 to infinity) in Sprague-Dawley rat at 1 mg/kg, iv by LC-MS/MS analysis; type: ADME, organism-based; parameters: dose 1 mg/kg, time infinity, route intravenous; settings: in vivo
# BHT-101 = experiment: Reduction in colony formation in human BHT101 cells at 6 uM after 24 hrs by crystal violet-based assay; type: ADME, cell-based; settings: bht-101, 24 h
# [10] = target: T1, Estrogen-related receptor gamma (Homo sapiens); experiment: Inverse agonist activity at ERRgamma in human BHT101 cells assessed as increase in NIS mRNA expression at 6 to 12 uM by RT-PCR analysis; type: cell-based
# CYP2C9 = CYP2C9 (Homo sapiens, UniProt P11712); experiment: Inhibition of CYP2C9 in human liver microsomes assessed as reduction in tolbutamide 4-hydroxylase activity at 10 uM preincubated for 5 mins followed by NADPH addition and measured after 15 mins by LC-MS/MS analysis relative to control; type: ADME; settings: probe tolbutamide (4-hydroxylation)
# Chain of CYP2C9 (P11712 whole entry): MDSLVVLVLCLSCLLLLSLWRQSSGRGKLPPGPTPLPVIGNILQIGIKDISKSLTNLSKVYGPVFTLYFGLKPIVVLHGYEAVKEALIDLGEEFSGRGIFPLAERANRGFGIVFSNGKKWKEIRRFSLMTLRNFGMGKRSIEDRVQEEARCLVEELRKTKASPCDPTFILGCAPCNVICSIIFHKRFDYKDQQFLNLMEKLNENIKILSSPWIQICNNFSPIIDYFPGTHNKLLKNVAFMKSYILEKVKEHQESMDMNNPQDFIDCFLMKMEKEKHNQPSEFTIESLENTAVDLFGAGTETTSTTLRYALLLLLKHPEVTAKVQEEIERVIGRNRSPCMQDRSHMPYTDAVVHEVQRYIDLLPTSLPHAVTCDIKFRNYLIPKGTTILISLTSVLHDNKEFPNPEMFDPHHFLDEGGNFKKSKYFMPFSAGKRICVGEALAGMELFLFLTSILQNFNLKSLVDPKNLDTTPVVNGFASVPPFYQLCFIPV
# [11] = Metabolic stability in human liver microsomes assessed as compound remaining at 1 uM after 30 mins in presence of NADPH regeneration system by LC-MS/MS analysis; type: ADME, Microsome; settings: read-out: Stability
# [12] = Metabolic stability in rat liver microsomes assessed as compound remaining at 1 uM after 30 mins in presence of NADPH regeneration system by LC-MS/MS analysis; type: ADME, Microsome; settings: read-out: Stability
# [13] = target: T1, Estrogen-related receptor gamma (Homo sapiens); experiment: Inverse agonist activity at ERRgamma in human CAL62 cells assessed as increase in TPO mRNA expression at 6 to 12 uM by RT-PCR analysis; type: cell-based
# [14] = target: T1, Estrogen-related receptor gamma (Homo sapiens); experiment: Inverse agonist activity at ERRgamma in human CAL62 cells assessed as restoration of sodium iodide symporter function by measuring increase in radioiodide avidity at 6 to 12 uM in presence of NIS inhibitor KClO4 after 24 hrs by gamma counting analysis based [125-I]-iodide uptake assay; type: cell-based
# [15] = Metabolic stability in mouse liver microsomes assessed as compound remaining at 1 uM after 30 mins in presence of NADPH regeneration system by LC-MS/MS analysis; type: ADME, Microsome; settings: read-out: Stability
# [16] = target: T1, Estrogen-related receptor gamma (Homo sapiens); experiment: Inverse agonist activity at ERRgamma in human BHT101 cells assessed as increase in TSHR mRNA expression at 6 to 12 uM by RT-PCR analysis; type: cell-based
# [17] = target: T1, Estrogen-related receptor gamma (Homo sapiens); experiment: Inverse agonist activity at ERRgamma in human BHT101 cells assessed as restoration of sodium iodide symporter function by measuring increase in radioiodide avidity at 6 to 12 uM in presence of NIS inhibitor KClO4 after 24 hrs by gamma counting analysis based [125-I]-iodide uptake assay; type: cell-based
# [18] = target: T1, Estrogen-related receptor gamma (Homo sapiens); experiment: Inverse agonist activity at ERRgamma in human BHT101 cells assessed as increase in TPO mRNA expression at 6 to 12 uM by RT-PCR analysis; type: cell-based
# in vivo = settings: Sprague-Dawley, rat, iv, 1 mg/kg
# [19] = AUC (0 to infinity) in Sprague-Dawley rat at 9 to 10 mg/kg, po via gavage by LC-MS/MS analysis; type: ADME, organism-based; settings: in vivo
# [20] = target: T1, Estrogen-related receptor gamma (Homo sapiens); experiment: Inverse agonist activity at ERRgamma in human BHT101 cells assessed as restoration of sodium iodide symporter function by measuring increase in radioiodide avidity at 6 to 12 uM after 24 hrs by gamma counting analysis based [125-I]-iodide uptake assay; type: cell-based
# [21] = target: T1, Estrogen-related receptor gamma (Homo sapiens); experiment: Inverse agonist activity at ERRgamma in human CAL62 cells assessed as increase in NIS mRNA expression at 6 to 12 uM by RT-PCR analysis; type: cell-based
# CYP3A4 = CYP3A4 (Homo sapiens, UniProt P08684); experiment: Inhibition of CYP3A4 in human liver microsomes assessed as reduction in midazolam 1-hydroxylase activity at 10 uM preincubated for 5 mins followed by NADPH addition and measured after 15 mins by LC-MS/MS analysis relative to control; type: ADME; settings: probe midazolam (1-hydroxylation)
# Chain of CYP3A4 (P08684 whole entry): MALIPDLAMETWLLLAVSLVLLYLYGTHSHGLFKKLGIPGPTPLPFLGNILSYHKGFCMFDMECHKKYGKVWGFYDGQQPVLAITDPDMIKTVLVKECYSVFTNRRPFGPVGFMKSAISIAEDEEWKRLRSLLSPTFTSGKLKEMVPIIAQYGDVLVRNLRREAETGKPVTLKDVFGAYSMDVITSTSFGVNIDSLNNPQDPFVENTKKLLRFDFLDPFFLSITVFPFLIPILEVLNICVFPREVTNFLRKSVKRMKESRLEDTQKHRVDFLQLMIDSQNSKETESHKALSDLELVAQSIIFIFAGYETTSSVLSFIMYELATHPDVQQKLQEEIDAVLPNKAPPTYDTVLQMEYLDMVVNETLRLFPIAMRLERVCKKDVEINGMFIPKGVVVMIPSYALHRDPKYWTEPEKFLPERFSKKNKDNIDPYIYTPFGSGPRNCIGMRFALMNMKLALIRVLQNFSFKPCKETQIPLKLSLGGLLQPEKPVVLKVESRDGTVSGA
# [22] = Potentiation of radio-iodine avidity in human CAL62 cells xenografted mouse assessed as increase in radio-iodine accumulation in tumor at 200 mg/kg, po dosed once daily for 6 days followed by 50 uCi 124-iodine dosing and measured after 2 hrs by PET/CT imaging analysis; type: ADME, organism-based, Neoplasm; settings: in vivo
structure (smiles),measurement,setting,value
CC(C)N1CCN(c2ccc(/C(=C(/CCCO)c3ccccc3)c3cccc(O)c3)cc2)CC1.Cl.Cl,Activity,[1],Dose-dependent effect
same,Activity,[2],Active
same,Activity,[3],Non-Toxic
same,"inhibition at 0.25 h, 10 µM",CYP2D6,34%
same,Activity,[4],Active
same,Tmax,[5],1.7 h
same,"inhibition at 0.25 h, 10 µM",CYP1A2,0%
same,"remaining at 0.5 h, 1 µM",[6],61.2%
same,Activity,CAL-62,Non-Toxic
same,Activity,[7],Dose-dependent effect
same,"Papp at 5 h, 10 µM",[8],12.9 nm/s
same,"inhibition at 0.25 h, 10 µM",CYP2C19,0%
same,AUC(0-inf),[9],1000 nM·h
same,Activity,BHT-101,Non-Toxic
same,Activity,[10],Active
same,"inhibition at 0.25 h, 10 µM",CYP2C9,24.1%
same,"remaining at 0.5 h, 1 µM",[11],65.4%
same,"remaining at 0.5 h, 1 µM",[12],54.9%
same,Activity,[13],Dose-dependent effect
same,Activity,[14],inactive
same,"remaining at 0.5 h, 1 µM",[15],26.9%
same,Activity,[16],Active
same,Activity,[17],inactive
same,Activity,[18],Active
same,AUC,in vivo,990 nM·h
same,AUC(0-inf),[19],4710 nM·h
same,Activity,[20],Active
same,Activity,[21],Dose-dependent effect
same,"inhibition at 0.25 h, 10 µM",CYP3A4,53.3%
same,Activity,[22],Active

# — ChEMBL document CHEMBL4411321, “Discovery of Potent, Selective, and Orally Bioavailable Estrogen-Related Receptor-γ Inverse Agonists To Restore the Sodium Iodide Symporter Function in Anaplastic Thyroid Cancer” (J Med Chem, 2019)
